Structures are written as SMILES. pIC50: −log10 of the molar value.

Results on 9 molecules are retold here after ChEMBL document CHEMBL4480429, “Discovery of (S)-6-methoxy-chroman-3-carboxylic acid (4-pyridin-4-yl-phenyl)-amide as potent and isoform selective ROCK2 inhibitors” (Bioorg Med Chem, 2019).

Assay [1] has as its target Rho-associated protein kinase 1 (Homo sapiens, UniProt Q13464). The experiment in a line: Inhibition of ROCK1 (unknown origin) using STK2 as substrate measured after 4 hrs by HTRF assay.
The species named for a further assay is Homo sapiens. The experiment in a line: Selectivity ratio of IC50 for ROCK1 (unknown origin) to IC50 for ROCK2 (unknown origin).
In assay [2] the target is Rho-associated protein kinase 2 (Homo sapiens, UniProt O75116). The experiment in a line: Inhibition of ROCK2 (unknown origin) using STK2 as substrate measured after 4 hrs by HTRF assay. (TR-FRET usually uses a lanthanide donor and a delayed reading to cut background.)
Sequence of Rho-associated protein kinase 2 (O75116 whole entry): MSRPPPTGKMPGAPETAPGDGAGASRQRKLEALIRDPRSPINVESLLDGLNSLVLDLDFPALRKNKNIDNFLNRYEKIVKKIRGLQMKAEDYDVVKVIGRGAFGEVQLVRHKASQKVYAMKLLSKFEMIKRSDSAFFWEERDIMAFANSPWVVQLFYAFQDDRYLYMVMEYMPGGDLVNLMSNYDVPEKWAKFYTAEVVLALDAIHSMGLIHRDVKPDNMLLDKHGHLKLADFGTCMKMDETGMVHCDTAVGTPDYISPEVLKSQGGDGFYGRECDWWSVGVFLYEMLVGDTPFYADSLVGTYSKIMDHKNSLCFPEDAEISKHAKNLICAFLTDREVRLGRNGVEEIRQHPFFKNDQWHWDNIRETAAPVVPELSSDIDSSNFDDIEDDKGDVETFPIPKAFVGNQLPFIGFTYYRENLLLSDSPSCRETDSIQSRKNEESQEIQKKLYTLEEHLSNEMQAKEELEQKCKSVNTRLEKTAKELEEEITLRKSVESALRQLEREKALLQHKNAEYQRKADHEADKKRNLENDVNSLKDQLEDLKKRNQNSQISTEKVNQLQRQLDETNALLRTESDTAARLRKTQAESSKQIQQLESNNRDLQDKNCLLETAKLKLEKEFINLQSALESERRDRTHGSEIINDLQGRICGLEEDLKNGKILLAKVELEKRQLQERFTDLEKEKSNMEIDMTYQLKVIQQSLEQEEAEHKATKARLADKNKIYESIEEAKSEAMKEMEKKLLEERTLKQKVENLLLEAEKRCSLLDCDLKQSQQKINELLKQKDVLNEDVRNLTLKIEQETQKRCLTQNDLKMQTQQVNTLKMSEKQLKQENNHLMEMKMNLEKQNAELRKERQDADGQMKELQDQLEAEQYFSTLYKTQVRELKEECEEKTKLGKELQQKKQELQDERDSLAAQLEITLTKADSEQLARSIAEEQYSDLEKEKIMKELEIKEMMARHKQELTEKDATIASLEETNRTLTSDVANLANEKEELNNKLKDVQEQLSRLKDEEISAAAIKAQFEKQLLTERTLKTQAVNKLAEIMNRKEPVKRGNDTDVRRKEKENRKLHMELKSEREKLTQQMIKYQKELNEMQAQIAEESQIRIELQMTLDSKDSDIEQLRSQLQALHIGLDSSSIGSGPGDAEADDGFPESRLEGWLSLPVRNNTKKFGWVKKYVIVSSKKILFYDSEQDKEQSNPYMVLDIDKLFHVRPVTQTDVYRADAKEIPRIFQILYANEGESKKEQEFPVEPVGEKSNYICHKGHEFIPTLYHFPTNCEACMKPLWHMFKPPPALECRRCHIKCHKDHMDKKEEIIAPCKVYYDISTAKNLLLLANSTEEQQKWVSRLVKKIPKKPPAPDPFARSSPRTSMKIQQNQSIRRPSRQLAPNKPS

Sequence of Rho-associated protein kinase 1 (Q13464 whole entry): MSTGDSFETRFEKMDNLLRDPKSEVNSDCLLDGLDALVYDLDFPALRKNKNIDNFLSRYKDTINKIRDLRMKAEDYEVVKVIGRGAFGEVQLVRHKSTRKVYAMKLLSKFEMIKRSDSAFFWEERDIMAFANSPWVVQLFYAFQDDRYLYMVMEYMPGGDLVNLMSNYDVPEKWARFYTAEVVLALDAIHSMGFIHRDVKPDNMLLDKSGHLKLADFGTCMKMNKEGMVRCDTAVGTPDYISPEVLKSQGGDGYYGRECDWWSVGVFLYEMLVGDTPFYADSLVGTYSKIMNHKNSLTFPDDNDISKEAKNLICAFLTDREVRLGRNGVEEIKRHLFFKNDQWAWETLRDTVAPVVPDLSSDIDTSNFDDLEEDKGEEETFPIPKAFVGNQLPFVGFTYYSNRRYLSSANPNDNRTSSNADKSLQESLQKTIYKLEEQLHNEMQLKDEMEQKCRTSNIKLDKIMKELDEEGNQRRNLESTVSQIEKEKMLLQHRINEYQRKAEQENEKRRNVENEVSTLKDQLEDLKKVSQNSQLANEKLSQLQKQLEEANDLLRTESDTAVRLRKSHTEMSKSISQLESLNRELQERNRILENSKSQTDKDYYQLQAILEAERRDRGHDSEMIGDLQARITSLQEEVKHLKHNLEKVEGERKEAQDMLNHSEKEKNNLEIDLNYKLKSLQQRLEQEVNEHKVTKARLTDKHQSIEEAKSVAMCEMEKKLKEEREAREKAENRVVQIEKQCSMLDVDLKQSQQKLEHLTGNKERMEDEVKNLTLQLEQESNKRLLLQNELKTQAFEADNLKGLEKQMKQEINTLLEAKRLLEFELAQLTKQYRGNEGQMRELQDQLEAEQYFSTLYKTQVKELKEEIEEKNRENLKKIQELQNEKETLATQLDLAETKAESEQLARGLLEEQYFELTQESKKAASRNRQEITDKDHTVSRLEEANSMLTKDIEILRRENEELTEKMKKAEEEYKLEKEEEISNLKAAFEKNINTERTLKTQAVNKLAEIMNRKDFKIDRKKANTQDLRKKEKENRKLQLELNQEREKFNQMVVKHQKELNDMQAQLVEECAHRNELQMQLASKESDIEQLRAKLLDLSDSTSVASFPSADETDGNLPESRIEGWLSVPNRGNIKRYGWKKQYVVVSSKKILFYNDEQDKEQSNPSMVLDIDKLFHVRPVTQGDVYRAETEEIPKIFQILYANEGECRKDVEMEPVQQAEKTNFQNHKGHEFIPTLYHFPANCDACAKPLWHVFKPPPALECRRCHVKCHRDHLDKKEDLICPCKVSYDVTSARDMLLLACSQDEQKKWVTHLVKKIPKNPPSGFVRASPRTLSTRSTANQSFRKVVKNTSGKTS

The pIC50 is −log10 of the IC50, conventionally taken in molar units. Low values mean a high IC50, high ones a low IC50. With `COc1ccc2c(c1)CC(C(=O)Nc1ccc(-c3c[nH]nc3C)cc1OCCN(C)C)CO2` (stereo not given), the pIC50 is 7.79 in assay [1] and 8.92 in assay [2]. Besides, the Ratio IC50 in the assay filed under Homo sapiens stood at 13.6.

Regarding `CN(C)CCOc1cc(-c2ccncc2)ccc1NC(=O)C1COc2ccc(Cl)cc2C1` (stereo not given), the values for the pIC50 in assay [1] and in assay [2] were 6.87 and 7.66, respectively. Besides, in the assay listed under Homo sapiens, the Ratio IC50 is 6.1.

`CN(C)CCOc1cc(-c2ccncc2)ccc1NC(=O)C1COc2ccccc2C1` (stereo not given): the pIC50 is 7.52 in assay [1] and 8.15 in assay [2]. Also, in the assay listed under Homo sapiens, the Ratio IC50 was 4.3.

As to `COc1ccc2c(c1)C[C@@H](C(=O)Nc1ccc(-c3ccncc3)cc1OCCN(C)C)CO2`, the pIC50 in assay [1] was 6.28; in assay [2] it was 6.76. The Ratio IC50 in the assay filed under Homo sapiens stood at 3.

Take `COc1ccc2c(c1)CC(C(=O)Nc1ccc(-c3ccncc3)cc1OCCN(C)C)CO2` (stereo not given): the pIC50 was 6.77 in assay [1] and 8.05 in assay [2]. The Ratio IC50 in the assay listed under Homo sapiens worked out at 18.9.

Consider `CN(C)CCOc1cc(-c2ccncc2)ccc1NC(=O)C1COc2ccc(F)cc2C1` (stereo not given), for which the pIC50 was 6.98 in assay [1] and 8.15 in assay [2]. Also, the Ratio IC50 in the assay listed under Homo sapiens was determined as 14.8.

Turning to `COc1ccc2c(c1)C[C@H](C(=O)Nc1ccc(-c3ccncc3)cc1OCCN(C)C)CO2`, the pIC50 in assay [1] was 7.17; in assay [2], 8.52. Further, in the assay filed under Homo sapiens, the Ratio IC50 was determined as 22.7.

In assay [1], `COc1ccc2c(c1)CC(C(=O)Nc1ccc(-c3cn[nH]c3)cc1OCCN(C)C)CO2` (stereo not given) gave a pIC50 of 8.47.

In the case of `Cc1ccc2c(c1)CC(C(=O)Nc1ccc(-c3ccncc3)cc1OCCN(C)C)CO2` (stereo not given), the pIC50 was 6.77 in assay [1] and 7.62 in assay [2]. Besides, the Ratio IC50 in the assay listed under Homo sapiens amounted to 7.
